Experimental data as given in patent US4888174A, “Insecticidal polymeric compositions” (priority 1988, dated 1989).

Assay: Absorption rate of chlorpyrifos onto LDPE and ethylene/acrylic acid (EAA) pellets
Format: physicochemical
Conditions: 85° C.; for Actual Weight % Chlorpyrifos Found in Copolymer EAA: EAA (Primacor 1430) pellets; for % of Chlorpyrifos Absorbed onto Copolymer EAA: EAA pellets, relative to 0.88% maximum; for Actual Weight % Chlorpyrifos Found in LDPE / % of Chlorpyrifos Absorbed onto LDPE: LDPE pellets; for % of Chlorpyrifos Absorbed onto LDPE: relative to 0.90% maximum
Protocol: A constant temperature oven is set at 85° C. by using a thermowatch controller and an infrared heat lamp. A wide mouth quart jar containing 247.5 g of 749 low density polyethylene (LDPE) or an equivalent amount of Primacor® 1430 pellets is placed into the oven and left overnight. Primacor® is a copolymer of ethylene/acrylic acid (EAA) containing 9 percent (%) by weight acrylic acid. Two and one-half grams of liquid Dursban® insecticide heated to 50° C. are added to each jar to give a calculated concentration of 1 percent chlorpyrifos in the polymer. The Dursban® insecticide contains 99 percent chlorpyrifos and 1 percent inert ingredients. The jar is shaken initially, returned to the oven, and then removed every 5 minutes and reshaken. A first sample of 10 pellets is taken from the jar after 15 minutes. The pellets are placed on an ice water bath for 1 minute, removed with tweezers and placed into a 50 ml beaker. The pellets are rinsed with 5 mls of acetone to remove excess water. The pellets are rinsed with 5 mls of methylene chloride to remove chlorpyrifos coated on the pellet surface. The solvent is decanted after each rinse and the pellets are dried by blowing nitrogen over them for three minutes. The pellets are weighed on an analytical balance, placed into a 2 ounce bottle and the chlorpyrifos absorbed by the pellets is extracted by shaking the pellets with 20 mls of chloroform on an automatic shaker overnight. The chloroform extract, after appropriate dilution, is measured at 292 nanometers wave length on an ultraviolet (UV) spectrophotometer. The absorbence of the sample extract is compared to a standard curve of absorbence from a known concentration of chlorpyrifos in chloroform. The absorption rate for the Primacor® 1430 pellets is determined in the same manner as the LDPE.

[1] = assumed, based on a time of 180 minutes

In the case of `CCOP(=S)(OCC)Oc1nc(Cl)c(Cl)cc1Cl` [Chlorpyrifos, O,O-diethyl-3,5,6-trichloro-2-pyridyl phosphorothioate], the “Actual Weight % Chlorpyrifos Found in Copolymer EAA” value (0 minutes) is reported as 0.0 Weight %, the “Actual Weight % Chlorpyrifos Found in Copolymer EAA” value (15 minutes) is reported as 0.71 Weight % and the “Actual Weight % Chlorpyrifos Found in Copolymer EAA” value (30 minutes) is reported as 0.80 Weight %. The “Actual Weight % Chlorpyrifos Found in Copolymer EAA” value (45 minutes) was 0.85 Weight %, the “Actual Weight % Chlorpyrifos Found in Copolymer EAA” value (60 minutes) was 0.84 Weight % and the “Actual Weight % Chlorpyrifos Found in Copolymer EAA” value (90 minutes) was 0.83 Weight %. For the same compound, the “Actual Weight % Chlorpyrifos Found in Copolymer EAA” value (120 minutes) was 0.95 Weight %, the “Actual Weight % Chlorpyrifos Found in Copolymer EAA” value (150 minutes) was 0.86 Weight % and the “Actual Weight % Chlorpyrifos Found in Copolymer EAA” value (180 minutes) was 0.88 Weight %. For the same compound, the “% of Chlorpyrifos Absorbed onto Copolymer EAA” value (0 minutes) was 0.0%, the “% of Chlorpyrifos Absorbed onto Copolymer EAA” value (15 minutes) was 80.7% and the “% of Chlorpyrifos Absorbed onto Copolymer EAA” value (30 minutes) was 90.9%. For the same compound, the “% of Chlorpyrifos Absorbed onto Copolymer EAA” value (45 minutes) was 96.6%, the “% of Chlorpyrifos Absorbed onto Copolymer EAA” value (60 minutes) was 95.5% and the “% of Chlorpyrifos Absorbed onto Copolymer EAA” value (90 minutes) was 94.3%. For the same compound, the “% of Chlorpyrifos Absorbed onto Copolymer EAA” value (120 minutes) was 108.0%, the “% of Chlorpyrifos Absorbed onto Copolymer EAA” value (150 minutes) was 97.7% and the “% of Chlorpyrifos Absorbed onto Copolymer EAA” value (180 minutes) was 100.0%. The “Actual Weight % Chlorpyrifos Found in LDPE” value (0 minutes) was 0.0 Weight %, the “% of Chlorpyrifos Absorbed onto LDPE” value (0 minutes) was 0.0% and the “Actual Weight % Chlorpyrifos Found in LDPE” value (15 minutes) was 0.64 Weight %. The “% of Chlorpyrifos Absorbed onto LDPE” value (15 minutes) was 71.1%, the “Actual Weight % Chlorpyrifos Found in LDPE” value (30 minutes) was 0.76 Weight % and the “% of Chlorpyrifos Absorbed onto LDPE” value (30 minutes) was 84.4%. The “Actual Weight % Chlorpyrifos Found in LDPE” value (45 minutes) was 0.86 Weight %, the “% of Chlorpyrifos Absorbed onto LDPE” value (45 minutes) was 95.6% and the “Actual Weight % Chlorpyrifos Found in LDPE” value (60 minutes) was 0.91 Weight %. The “% of Chlorpyrifos Absorbed onto LDPE” value (60 minutes) was 101.1%, the “Actual Weight % Chlorpyrifos Found in LDPE” value (90 minutes) was 0.89 Weight % and the “% of Chlorpyrifos Absorbed onto LDPE” value (90 minutes) was 98.9%. For the same compound, the “Actual Weight % Chlorpyrifos Found in LDPE” value (120 minutes) was 0.92 Weight %, the “% of Chlorpyrifos Absorbed onto LDPE” value (120 minutes) was 102.2% and the “Actual Weight % Chlorpyrifos Found in LDPE” value (150 minutes) was 1.07 Weight %. The “% of Chlorpyrifos Absorbed onto LDPE” value (150 minutes) was 118.9%, the “Actual Weight % Chlorpyrifos Found in LDPE” value (180 minutes) was 0.90 Weight % and the “% of Chlorpyrifos Absorbed onto LDPE” value (180 minutes) was 100.0%. The “maximum absorption by the Copolymer EAA” value [1] was 0.88 % by weight and the “maximum absorption of chlorpyrifos by the LDPE” value [1] was 0.90 % by weight.
